The target in test [1] is 5-hydroxytryptamine receptor 2A (Homo sapiens, UniProt P28223). Kind of test: Displacement of [3H]ketanserin from 5HT2A receptor expressed in NIH3T3 cells. The test is classed as cell-based.
In test [2] the target is 5-hydroxytryptamine receptor 2A (Homo sapiens, UniProt P28223, F340L). Kind of test: Displacement of [3H]ketanserein from 5HT2A receptor F340L mutant expressed in NIH3T3 cells. Type of test: cell-based.
For test [3], the target named is Sodium-dependent serotonin transporter (Homo sapiens, UniProt P31645). Kind of test: Displacement of [3H]paroxitine from SERT. (Loss of bound radioactivity is the signal in a displacement assay; it reports binding, not function.)
Test [4] concerns the target Sodium-dependent noradrenaline transporter (Homo sapiens, UniProt P23975). The experiment in a line: Displacement of [3H]nisoxitine from NET.
The target in test [5] is T1, 5-hydroxytryptamine receptor 2C (Homo sapiens, UniProt P28335).
T1 sequence (P28335 whole entry): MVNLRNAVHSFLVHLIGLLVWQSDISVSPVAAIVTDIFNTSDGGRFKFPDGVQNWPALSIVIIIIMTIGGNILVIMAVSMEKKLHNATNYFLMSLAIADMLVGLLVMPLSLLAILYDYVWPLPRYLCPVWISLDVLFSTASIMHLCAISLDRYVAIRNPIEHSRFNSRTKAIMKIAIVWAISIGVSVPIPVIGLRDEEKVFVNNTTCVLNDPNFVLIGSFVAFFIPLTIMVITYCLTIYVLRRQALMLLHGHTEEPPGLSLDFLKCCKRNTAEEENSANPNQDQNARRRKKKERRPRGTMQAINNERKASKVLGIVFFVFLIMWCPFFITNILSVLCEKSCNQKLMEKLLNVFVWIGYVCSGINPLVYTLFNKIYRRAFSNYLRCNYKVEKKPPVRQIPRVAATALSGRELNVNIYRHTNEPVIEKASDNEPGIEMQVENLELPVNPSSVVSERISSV
The experiment in a line: Displacement of [3H]mesulergine from 5HT2C receptor.

In the next test the target is D(2) dopamine receptor (Homo sapiens, UniProt P14416). Kind of test: Displacement of [3H]spiperone from dopamine D2 receptor.

pKi: −log10 of the molar value.

Chain of D(2) dopamine receptor (P14416 whole entry): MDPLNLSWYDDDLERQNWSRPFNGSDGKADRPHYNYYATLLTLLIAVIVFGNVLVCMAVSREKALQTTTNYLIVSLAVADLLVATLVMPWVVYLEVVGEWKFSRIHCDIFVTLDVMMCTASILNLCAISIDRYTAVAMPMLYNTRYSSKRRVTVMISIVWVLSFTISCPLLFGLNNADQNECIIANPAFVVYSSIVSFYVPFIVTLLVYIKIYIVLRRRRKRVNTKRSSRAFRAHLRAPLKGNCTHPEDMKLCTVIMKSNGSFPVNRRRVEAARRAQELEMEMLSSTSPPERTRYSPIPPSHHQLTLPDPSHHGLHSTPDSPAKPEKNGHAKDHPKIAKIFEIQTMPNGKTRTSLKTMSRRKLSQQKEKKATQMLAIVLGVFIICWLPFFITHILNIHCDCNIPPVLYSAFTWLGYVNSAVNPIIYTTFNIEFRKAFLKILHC
Chain of Sodium-dependent noradrenaline transporter (P23975 whole entry): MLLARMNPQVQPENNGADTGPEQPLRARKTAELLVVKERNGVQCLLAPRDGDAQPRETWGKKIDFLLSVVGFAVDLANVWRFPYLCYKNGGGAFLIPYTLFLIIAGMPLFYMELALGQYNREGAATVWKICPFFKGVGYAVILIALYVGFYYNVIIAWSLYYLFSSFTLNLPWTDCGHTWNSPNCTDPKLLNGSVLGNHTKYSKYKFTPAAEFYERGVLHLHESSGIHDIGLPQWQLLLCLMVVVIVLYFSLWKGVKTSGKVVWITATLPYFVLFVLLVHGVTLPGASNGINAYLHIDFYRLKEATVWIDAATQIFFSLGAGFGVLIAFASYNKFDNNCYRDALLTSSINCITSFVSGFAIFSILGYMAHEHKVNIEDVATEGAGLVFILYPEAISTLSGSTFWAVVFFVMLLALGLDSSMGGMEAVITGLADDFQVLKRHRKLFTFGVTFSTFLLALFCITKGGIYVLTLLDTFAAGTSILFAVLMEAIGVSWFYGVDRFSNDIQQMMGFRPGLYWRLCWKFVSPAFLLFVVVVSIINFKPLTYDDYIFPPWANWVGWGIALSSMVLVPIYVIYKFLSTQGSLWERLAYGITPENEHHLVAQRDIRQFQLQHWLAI
Chain of Sodium-dependent serotonin transporter (P31645 whole entry): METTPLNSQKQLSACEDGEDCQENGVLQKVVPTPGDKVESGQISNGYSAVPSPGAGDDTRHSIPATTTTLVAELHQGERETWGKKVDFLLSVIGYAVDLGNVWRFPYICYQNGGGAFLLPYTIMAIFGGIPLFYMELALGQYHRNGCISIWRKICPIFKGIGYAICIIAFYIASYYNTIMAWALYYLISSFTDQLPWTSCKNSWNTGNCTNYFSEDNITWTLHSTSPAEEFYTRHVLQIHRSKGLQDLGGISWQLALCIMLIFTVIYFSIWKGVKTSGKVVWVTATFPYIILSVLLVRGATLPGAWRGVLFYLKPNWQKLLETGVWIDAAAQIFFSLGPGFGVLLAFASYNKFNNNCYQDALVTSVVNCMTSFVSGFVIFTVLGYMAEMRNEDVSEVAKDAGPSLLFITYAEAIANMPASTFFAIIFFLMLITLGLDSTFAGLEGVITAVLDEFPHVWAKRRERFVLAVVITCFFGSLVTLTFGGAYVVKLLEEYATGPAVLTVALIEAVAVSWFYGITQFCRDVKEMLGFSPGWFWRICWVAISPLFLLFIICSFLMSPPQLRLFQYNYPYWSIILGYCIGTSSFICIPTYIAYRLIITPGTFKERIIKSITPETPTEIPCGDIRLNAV
Chain of 5-hydroxytryptamine receptor 2A (Homo sapiens, UniProt P28223) (P28223 whole entry): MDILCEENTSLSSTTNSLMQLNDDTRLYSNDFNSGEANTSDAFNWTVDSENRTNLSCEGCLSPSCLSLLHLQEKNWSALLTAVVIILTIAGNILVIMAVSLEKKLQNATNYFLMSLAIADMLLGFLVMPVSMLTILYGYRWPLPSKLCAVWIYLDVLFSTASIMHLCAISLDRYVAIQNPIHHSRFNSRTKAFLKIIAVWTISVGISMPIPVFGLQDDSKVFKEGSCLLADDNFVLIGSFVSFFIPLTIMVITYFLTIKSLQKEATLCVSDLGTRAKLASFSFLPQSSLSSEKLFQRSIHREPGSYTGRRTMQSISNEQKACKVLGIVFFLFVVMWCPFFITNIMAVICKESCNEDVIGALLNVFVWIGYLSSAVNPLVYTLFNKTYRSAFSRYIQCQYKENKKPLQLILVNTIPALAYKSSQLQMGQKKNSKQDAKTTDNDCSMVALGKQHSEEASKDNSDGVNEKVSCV
Chain of 5-hydroxytryptamine receptor 2A (Homo sapiens, UniProt P28223, F340L) (P28223 whole entry F340L): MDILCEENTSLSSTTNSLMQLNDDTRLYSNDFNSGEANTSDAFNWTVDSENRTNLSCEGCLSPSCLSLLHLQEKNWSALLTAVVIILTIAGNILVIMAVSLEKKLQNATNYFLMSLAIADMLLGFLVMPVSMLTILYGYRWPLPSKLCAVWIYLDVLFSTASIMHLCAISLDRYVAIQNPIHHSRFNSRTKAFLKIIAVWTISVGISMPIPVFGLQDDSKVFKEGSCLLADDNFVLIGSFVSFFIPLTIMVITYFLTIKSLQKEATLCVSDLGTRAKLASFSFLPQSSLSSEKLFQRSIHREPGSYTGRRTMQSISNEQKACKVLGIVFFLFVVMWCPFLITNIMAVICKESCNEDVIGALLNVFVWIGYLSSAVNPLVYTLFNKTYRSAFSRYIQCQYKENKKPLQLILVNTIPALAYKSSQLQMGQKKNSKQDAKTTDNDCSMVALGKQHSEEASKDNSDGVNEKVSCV

Usually pKi stands for the negative decadic logarithm of the Ki, by convention in mol/L. A high value points to a low Ki. `NCC(c1ccccc1)c1ccc(Br)cc1` (stereo not drawn): the pKi in test [1] was 6.59; in test [2] it was 8.46.
In test [1], `COc1cc(CC(C)N)c(OC)cc1CCCc1ccccc1` (stereo not drawn) had a negative-log Ki (pKi) of 8.00.
For `CCCCCCc1cc(OC)c(CC(C)N)cc1OC` (stereo not drawn), in test [1], the negative-log Ki (pKi) was 8.60.
Take `NCCc1ccc(CCCc2ccccc2)cc1`: the pKi in test [1] was 7.22.
In the case of `CCCCCCc1ccc2c(c1)Cc1ccccc1C2CN` (stereo not drawn), the pKi in test [3] is 6.31; in test [4] it was 6.07; in test [1], 8.15; in test [5], 7.21; at D(2) dopamine receptor, 5.20.
On to `NCC1c2ccccc2Cc2cc(Br)ccc21` (stereo not drawn), for which the pKi in test [3] is 5.92; in test [4], 5.35; in test [1], 8.89; in test [2], 8.74; in test [5], 8.48; on D(2) dopamine receptor, less than 5.00.
The compound `CCCCCCc1ccc(CCN)cc1` showed a pKi in test [1] of 7.11.
For `NCCc1ccc(Br)cc1`, the pKi in test [1] was 5.75.
As to `NCC1c2ccccc2Cc2ccccc21`, the pKi in test [3] is less than 5.00; in test [4], less than 5.00; in test [5], 7.37; at D(2) dopamine receptor it was less than 5.00.
`CCCCCOc1ccc2c(c1)Cc1ccccc1C2CN` (stereo not drawn) showed a pKi in test [1] of 7.64.
Still for that read-out and setting: next, `CCCCCCc1ccc(C(CN)c2ccccc2)cc1` (stereo not drawn): 6.70; `NCC1c2ccccc2Cc2cc(CCCc3ccccc3)ccc21` (stereo not drawn): 8.49.
On the same count and under the same terms, the figure for `COc1cc(OC)c(OC)cc1CC(C)N` (stereo not drawn) is 5.92; for `COc1cc(CC(C)N)c(OC)cc1O` (stereo not drawn) it is less than 4.30; for `NCC1c2ccccc2Cc2cc(O)ccc21` (stereo not drawn) it is 6.97.

Values taken from ChEMBL document CHEMBL1142528 (J Med Chem, 2008).
